These results are taken from US20230374143A1, “A SORTILIN ANTAGONIST FOR USE IN THE PREVENTION OR TREATMENT OF HEARING LOSS” (Insusense ApS, priority 2020, published 2023).

Like-named read-outs stand apart in the source and are kept apart here.

Assay [1] deals with T1, hSortilin (Homo sapiens, UniProt Q99523).
T1 sequence (Q99523 78-831): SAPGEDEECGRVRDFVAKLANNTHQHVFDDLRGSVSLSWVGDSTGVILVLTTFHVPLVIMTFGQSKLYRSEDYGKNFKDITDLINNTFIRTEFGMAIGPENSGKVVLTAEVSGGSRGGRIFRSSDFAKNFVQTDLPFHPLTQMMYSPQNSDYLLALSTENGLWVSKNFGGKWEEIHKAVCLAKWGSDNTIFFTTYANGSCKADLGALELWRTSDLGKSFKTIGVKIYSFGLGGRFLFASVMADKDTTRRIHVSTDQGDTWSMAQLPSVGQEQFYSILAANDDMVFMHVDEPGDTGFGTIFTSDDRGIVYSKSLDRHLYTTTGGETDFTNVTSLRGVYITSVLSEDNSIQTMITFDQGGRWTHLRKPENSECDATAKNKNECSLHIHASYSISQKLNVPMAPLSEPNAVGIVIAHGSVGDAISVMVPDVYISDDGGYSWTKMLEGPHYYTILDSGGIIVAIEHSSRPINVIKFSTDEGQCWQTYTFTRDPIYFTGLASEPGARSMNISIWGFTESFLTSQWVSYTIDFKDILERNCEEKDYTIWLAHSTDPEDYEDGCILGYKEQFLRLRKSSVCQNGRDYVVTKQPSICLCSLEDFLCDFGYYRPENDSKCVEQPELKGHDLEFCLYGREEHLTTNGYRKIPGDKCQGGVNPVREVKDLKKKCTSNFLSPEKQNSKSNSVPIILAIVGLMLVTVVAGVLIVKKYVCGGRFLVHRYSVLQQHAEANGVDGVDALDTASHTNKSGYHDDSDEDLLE
Description: Neurotensin SPA assay with [125I]-Neurotensin. It is filed as binding. The text has this:
All values reported are average of at least 4 determinations.^8

Assay [2] concerns the target T1, hSortilin. Conditions: expected value, compared with the [125I]-Neurotensin SPA result; cited from earlier work.

In the case of `CC(C)(C)CC[C@H](NC(=O)c1ccc(Oc2ccccc2)nc1)C(=O)O` (racemic) [*Example 44], the IC50 was 120 nM at hSortilin [1] ([125I]-Neurotensin, read-out: Observed IC50) and 20 nM on hSortilin [2]. For the same molecule, the “Fold difference between calculated and expected” value on hSortilin [1] (observed versus expected IC50) is listed as 6.
